Measurements reported in patent EP1242382B1, “TRICYCLIC PROTEIN KINASE INHIBITORS” (Wyeth, priority 1999, dated 2001).
In brackets after ≈: the same amount, converted by molar mass.

Experiments:
MDA-MB-435 = assay: Inhibition of cancer cell growth as measured by cell number (Sulforhodamine B); assay type: cell-based; conditions: Homo sapiens, 48 hours exposure
Method: (§1) Human tumor cell lines are plated in 96-well plates (250 µl/well, 1-6 x 10^4 cells/ml) in RPMI 1640 medium, containing 5% FBS (Fetal Bovine Serum). Twenty four hours after plating, test compounds are added at various concentrations. After 48 hours exposure to test compounds, cells are fixed with trichloroacetic acid, and stained with Sulforhodamine B. After washing with trichloroacetic acid, bound dye is solubilized in 10 mM Tris base and optical density is determined using plate reader. Under conditions of the assay the optical density is proportional to the number of cells in the well. […] The test procedure is described in detail by Philip Skehan et. al, J. Natl. Canc. Inst., 82, 1107-1112 (1990). […] Information about some of the cell lines used in these test procedures is available from the American Type Tissue Collection: Cell Lines and Hybridomas, 1994 Reference Guide, 8th Edition.

SW620 = assay: as above; assay type: cell-based; conditions: Homo sapiens, SW-620; 48 hours exposure
Method: as §1

SK-BR3 = assay: as above; assay type: cell-based; conditions: Homo sapiens, SK-BR-3; 48 hours exposure
Method: as §1

A431 = assay: as above; assay type: cell-based; conditions: Homo sapiens, A-431; 48 hours exposure
Method: as §1

[1] = system: Human adenocarcinoma cell line LoVo; assay: Cell based screen for inhibitors of Raf kinase, quantitative assay; conditions: 96 h, four days incubation
Method: (§2) • Cell Lines: Human adenocarcinoma cell line LoVo which is known to be growth inhibited by low nM concentrations of a reference standard inhibitor of Ras and human adenocarcinoma cell line CaCo-2, which is known to be growth resistant to the same reference compound. • Cell Media : RPMI 1640 with 10% Fetal Bovine Serum supplemented with L-glutamine and Pennicilin/Streptomycin. • Compounds: Supplied usually as a 10 mM stock in 100% DMSO. • Normal Saline: 150 mM NaCl • Trichloroacetic Acid (TCA): 50% (w/v) in water • Sulforhodamine B (SRB): 0.4% (w/v) in 1% Acetic Acid • Tris Base: 10 mM in water
(§3) Cells are plated at 2000 cells per well for cell line LoVo and 1500 cells for cell line CaCo-2 in 96 well plates. Cells are plated in media (200 µl) and allowed to adhere overnight at 37°C. At 24 hours post plating, compounds are added directly at a volume of 0.5 µl. For the qualitative screen (compounds screened at 25 µM) compound is added directly to cells. For the quantitative screen, compound is first diluted in DMSO to generate concentrations of compound or reference standard of: 1, 5, 10 and 25 µM. It is advisable to make the dilutions in an identical 96 well plate so that compounds can be added using a multichannel micropipettor set at 0.5 µl. The cells are then incubated for four days after which the media is removed using a 12 well manifold by first tipping the plate forward at a 45 degree angle and then inserting the manifold in an upright orientation to prevent the tips of the manifold from disturbing cells at the bottom of the plate. 200 µl of normal saline is then added to each well using an 8 well multichannel pipettor, followed by the careful addition of 50 µl of 50% TCA. The plates are then incubated for 2 hours at 4°C, after which the supernatant is removed using the same technique as above and the plated washed twice with 200 µl water. The plates are then air dried and 50 µl of SRB stock solution is carefully added so that the entire bottom of each well is covered. This again can be used using an 8 well multichannel pipettor. The SRB is incubated with fixed cells for 15 minutes at room temperature after which the SRB is removed with the manifold as described above and the plates washed twice with 350 µl of 1% acetic acid per well each time. The plates are then air dried after which the bound SRB is released from protein by the addition of 200 µl of Tris base. Resolubilizing the SRB is aided by placing the plates on a rotator for 15-30 minutes. The absorbance of each well is determined at 550 or 562 nm using a microtiter plate reader.
(§4) Each compound or dilution thereof is performed in triplicate. Outliers are identified by visual inspection of the data. Each plate should have a "0" control (vehicle only).
(§5) Quantitative Assay: A standard curve is constructed by plotting the concentration of compound against the average absorbance calculated at that concentration. […] Multiple entries for a given compound indicate that it is tested multiple times.

[2] = system: human adenocarcinoma cell line CaCo-2; assay: as above; conditions: Caco-2, 96 h, four days incubation
Method: as §2, §3, §4, §5

IC50 (MDA-MB-435): 33.5 µg/mL (≈ 56.3 µM) | IC50 (SW620): 11.6 µg/mL (≈ 19.5 µM) | IC50 (SK-BR3): 3.5 µg/mL (≈ 5.88 µM) | IC50 (A431): 4.7 µg/mL (≈ 7.9 µM) | IC50 [1]: 0.43 µM | IC50 [2]: 6 µM
SMILES: COc1cc2cc3c(Nc4ccc(OCc5ccccc5)c(Cl)c4)c(C#N)cnc3cc2cc1OCCN1CCOCC1 [Example 218, 4-(4-Benzyloxy-3-chlorophenylamino)-7-methoxy-8-(2-morpholin-4-yl-ethoxy)benzo[g]quinoline-3-carbonitrile]
